This is an account of results in patent US8129417B2, “Substituted octahydrocyclopenta[C]pyrrol-4-amines as calcium channel blockers” (Abbott Laboratories, priority 2008, dated 2012).

The target of this assay is human Cav2.2 (Homo sapiens, UniProt Q00975). Put plainly: Assessment of calcium channel activity using FLIPR (Ca2+ influx in IMR32 cells). It is filed as cell-based. As to conditions: 60 minute pre-incubation with compound, 2 μM nifedipine, depolarized with 80 mM KCl. The method, boiled down: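 IMR32 neuroblastoma cells seeded at 1-1.2×10^5 cells/well and grown 48 h at 37 °C before FLIPR Ca2+ influx read. Percent inhibition at each concentration vs no-inhibitor activity; IC50 by non-linear sigmoidal dose-response fit.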
Sequence of human Cav2.2 (Q00975 whole entry): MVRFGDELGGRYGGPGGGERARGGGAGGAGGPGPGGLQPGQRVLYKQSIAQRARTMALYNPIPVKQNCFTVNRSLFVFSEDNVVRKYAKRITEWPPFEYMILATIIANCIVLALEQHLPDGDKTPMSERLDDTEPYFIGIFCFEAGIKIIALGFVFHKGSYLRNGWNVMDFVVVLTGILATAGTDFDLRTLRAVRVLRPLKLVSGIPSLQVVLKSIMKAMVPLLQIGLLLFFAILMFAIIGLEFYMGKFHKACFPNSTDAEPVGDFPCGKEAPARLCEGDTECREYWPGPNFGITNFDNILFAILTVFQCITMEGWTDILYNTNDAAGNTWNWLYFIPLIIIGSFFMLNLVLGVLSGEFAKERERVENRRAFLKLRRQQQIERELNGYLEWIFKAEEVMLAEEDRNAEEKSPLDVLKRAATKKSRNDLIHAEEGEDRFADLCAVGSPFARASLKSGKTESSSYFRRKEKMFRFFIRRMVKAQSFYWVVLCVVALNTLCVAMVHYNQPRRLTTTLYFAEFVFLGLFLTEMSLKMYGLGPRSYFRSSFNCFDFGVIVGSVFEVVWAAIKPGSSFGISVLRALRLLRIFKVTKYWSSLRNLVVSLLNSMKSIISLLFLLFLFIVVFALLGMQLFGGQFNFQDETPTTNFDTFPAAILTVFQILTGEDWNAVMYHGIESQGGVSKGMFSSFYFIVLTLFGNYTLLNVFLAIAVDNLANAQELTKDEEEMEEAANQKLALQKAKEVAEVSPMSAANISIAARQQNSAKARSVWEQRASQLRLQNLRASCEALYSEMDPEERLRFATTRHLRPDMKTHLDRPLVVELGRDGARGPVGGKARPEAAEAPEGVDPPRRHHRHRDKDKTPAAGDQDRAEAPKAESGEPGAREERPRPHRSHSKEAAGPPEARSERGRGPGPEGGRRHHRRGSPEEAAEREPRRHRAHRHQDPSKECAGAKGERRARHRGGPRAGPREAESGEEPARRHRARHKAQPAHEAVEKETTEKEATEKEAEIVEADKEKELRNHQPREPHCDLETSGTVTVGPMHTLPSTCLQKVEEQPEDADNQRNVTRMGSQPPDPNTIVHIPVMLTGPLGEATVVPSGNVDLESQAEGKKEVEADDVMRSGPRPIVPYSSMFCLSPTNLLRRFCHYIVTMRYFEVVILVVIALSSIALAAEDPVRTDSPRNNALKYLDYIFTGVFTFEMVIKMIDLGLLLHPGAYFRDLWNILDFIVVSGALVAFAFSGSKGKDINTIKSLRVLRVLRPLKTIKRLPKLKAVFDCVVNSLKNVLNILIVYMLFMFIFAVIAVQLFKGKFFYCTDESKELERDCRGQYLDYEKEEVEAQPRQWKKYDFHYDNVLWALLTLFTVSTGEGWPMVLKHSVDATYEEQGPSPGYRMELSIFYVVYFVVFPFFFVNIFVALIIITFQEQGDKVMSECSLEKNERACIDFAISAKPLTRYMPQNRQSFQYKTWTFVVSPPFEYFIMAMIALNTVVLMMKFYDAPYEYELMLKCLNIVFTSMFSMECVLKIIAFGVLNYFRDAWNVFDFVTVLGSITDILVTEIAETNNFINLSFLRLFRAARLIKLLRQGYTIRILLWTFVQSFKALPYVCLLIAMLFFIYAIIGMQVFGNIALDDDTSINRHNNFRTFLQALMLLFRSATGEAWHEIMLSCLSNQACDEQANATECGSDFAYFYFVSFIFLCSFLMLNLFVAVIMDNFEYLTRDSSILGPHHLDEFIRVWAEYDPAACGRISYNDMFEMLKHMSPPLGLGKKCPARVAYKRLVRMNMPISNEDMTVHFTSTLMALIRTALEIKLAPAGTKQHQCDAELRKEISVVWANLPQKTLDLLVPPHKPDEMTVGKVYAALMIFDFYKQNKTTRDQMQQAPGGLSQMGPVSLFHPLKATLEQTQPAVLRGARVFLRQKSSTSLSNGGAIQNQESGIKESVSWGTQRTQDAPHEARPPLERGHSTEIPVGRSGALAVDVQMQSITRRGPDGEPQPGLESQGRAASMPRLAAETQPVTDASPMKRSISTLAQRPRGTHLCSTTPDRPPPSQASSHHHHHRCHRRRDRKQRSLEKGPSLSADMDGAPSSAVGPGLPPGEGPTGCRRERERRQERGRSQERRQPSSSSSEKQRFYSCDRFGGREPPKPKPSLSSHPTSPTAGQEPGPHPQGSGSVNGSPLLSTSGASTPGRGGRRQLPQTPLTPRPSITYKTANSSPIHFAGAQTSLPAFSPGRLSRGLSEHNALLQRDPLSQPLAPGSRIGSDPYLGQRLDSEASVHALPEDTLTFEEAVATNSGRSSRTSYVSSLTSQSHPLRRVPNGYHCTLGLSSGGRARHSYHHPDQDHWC
Sequence of human Cav2.2 (P54289 25-946 partner limits assumed): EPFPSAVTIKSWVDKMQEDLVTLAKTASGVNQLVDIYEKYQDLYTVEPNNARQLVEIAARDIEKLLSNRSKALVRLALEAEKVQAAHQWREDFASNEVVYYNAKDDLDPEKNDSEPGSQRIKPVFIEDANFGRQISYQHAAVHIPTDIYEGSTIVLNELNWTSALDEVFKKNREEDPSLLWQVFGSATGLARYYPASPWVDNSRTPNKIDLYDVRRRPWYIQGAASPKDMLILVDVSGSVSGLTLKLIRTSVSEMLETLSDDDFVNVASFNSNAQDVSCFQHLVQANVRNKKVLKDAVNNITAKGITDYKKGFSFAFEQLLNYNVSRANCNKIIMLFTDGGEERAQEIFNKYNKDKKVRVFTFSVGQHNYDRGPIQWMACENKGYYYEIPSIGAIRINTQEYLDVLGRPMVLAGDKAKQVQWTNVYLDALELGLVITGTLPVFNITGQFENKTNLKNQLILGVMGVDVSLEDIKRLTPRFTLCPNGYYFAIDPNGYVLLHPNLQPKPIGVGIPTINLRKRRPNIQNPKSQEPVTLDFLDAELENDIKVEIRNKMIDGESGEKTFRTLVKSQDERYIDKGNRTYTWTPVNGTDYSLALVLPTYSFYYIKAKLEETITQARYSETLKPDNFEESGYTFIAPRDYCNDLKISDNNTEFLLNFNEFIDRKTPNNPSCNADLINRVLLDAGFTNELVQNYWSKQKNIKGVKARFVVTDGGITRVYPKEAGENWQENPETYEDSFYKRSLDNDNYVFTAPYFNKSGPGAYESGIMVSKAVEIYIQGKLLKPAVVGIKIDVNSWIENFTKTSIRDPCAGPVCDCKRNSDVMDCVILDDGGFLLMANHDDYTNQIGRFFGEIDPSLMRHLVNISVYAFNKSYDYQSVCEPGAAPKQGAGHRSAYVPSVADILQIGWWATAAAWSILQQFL
Sequence of human Cav2.2 (P54289 947-1103 partner limits assumed): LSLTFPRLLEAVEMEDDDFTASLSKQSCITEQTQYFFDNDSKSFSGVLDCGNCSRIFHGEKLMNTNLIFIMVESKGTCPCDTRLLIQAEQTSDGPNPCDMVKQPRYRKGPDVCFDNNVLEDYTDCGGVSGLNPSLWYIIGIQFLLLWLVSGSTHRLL
Sequence of human Cav2.2 (P54284 whole entry partner): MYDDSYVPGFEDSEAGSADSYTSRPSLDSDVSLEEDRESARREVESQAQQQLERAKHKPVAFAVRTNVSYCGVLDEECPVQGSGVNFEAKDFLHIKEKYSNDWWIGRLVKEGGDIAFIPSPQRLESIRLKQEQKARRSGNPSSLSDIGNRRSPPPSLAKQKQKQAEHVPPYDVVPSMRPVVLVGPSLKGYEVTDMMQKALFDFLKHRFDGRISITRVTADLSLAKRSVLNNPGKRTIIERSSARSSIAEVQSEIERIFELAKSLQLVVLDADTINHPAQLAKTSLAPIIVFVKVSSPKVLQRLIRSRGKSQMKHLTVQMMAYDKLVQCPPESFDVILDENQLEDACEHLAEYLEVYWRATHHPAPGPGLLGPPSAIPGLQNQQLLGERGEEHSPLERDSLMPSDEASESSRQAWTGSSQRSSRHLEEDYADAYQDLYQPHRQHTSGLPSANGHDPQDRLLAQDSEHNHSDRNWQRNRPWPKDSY
For orientation: IC50 means the midpoint of a concentration-inhibition curve. Take `CN[C@@H](CC(C)C)C(=O)N[C@@H]1CC[C@H]2CN(S(=O)(=O)c3ccc(Cl)cc3)C[C@H]21` [Example 447, N^1-{(3aS,4R,6aR)-2-[(4-chlorophenyl)sulfonyl]octahydrocyclopenta[c]pyrrol-4-yl}-N^2-methyl-L-leucinamide]: the concentration for half-maximal inhibition (IC50) was determined as 2710 nM.

Consider `CN[C@@H](CC(C)C)C(=O)N[C@@H]1CC[C@H]2CN(Cc3ccc(C(F)(F)F)cc3)C[C@H]21` [Example 449, N^2-methyl-N^1-{(3aS,4R,6aR)-2-[4-(trifluoromethyl)benzyl]octahydrocyclopenta[c]pyrrol-4-yl}-L-leucinamide], for which the IC50 was 4060 nM. `CN[C@H](C(=O)N[C@H]1CC[C@@H]2CN(S(=O)(=O)c3ccc(C(F)(F)F)cc3)C[C@@H]21)C(C)C` [Example 451, N^2-methyl-N^1-((3aR,4S,6aS)-2-{[4-(trifluoromethyl)phenyl]sulfonyl}octahydrocyclopenta[c]pyrrol-4-yl)-L-valinamide]: the IC50 amounted to 800 nM. Under `CN[C@H](C(=O)N[C@H]1CC[C@@H]2CN(S(=O)(=O)c3ccc(F)cc3)C[C@@H]21)C(C)C` [Example 452, N^1-{(3aR,4S,6aS)-2-[(4-fluorophenyl)sulfonyl]octahydrocyclopenta[c]pyrrol-4-yl}-N^2-methyl-L-valinamide] stands 9120 nM.

`CC(C)(C)C[C@H](N)C(=O)N[C@H]1CC[C@@H]2CN(S(=O)(=O)c3ccc(F)cc3)C[C@@H]21` [Example 453, N^1-{(3aR,4S,6aS)-2-[(4-fluorophenyl)sulfonyl]octahydrocyclopenta[c]pyrrol-4-yl}-4-methyl-L-leucinamide]: the half-maximal inhibitory concentration (IC50) is 4230 nM. Regarding `CCCC[C@H](NC)C(=O)N[C@H]1CC[C@@H]2CN(S(=O)(=O)c3ccc(F)cc3)C[C@@H]21` [Example 454, N^1-{(3aR,4S,6aS)-2-[(4-fluorophenyl)sulfonyl]octahydrocyclopenta[c]pyrrol-4-yl}-N^2-methyl-L-norleucinamide], the IC50 worked out at 2030 nM. Under `CN[C@@H](CC(C)C)C(=O)N[C@H]1CC[C@@H]2CN(S(=O)(=O)c3ccc(F)cc3)C[C@@H]21` [Example 455, N^1-{(3aR,4S,6aS)-2-[(4-fluorophenyl)sulfonyl]octahydrocyclopenta[c]pyrrol-4-yl}-N^2-methyl-L-leucinamide] stands 3030 nM; under `CCC[C@H](NC)C(=O)N[C@H]1CC[C@H]2CN(S(=O)(=O)c3ccc(C(F)(F)F)cc3)C[C@H]21` [Example 456, N^2-methyl-N^1-((3aS,4S,6aR)-2-{[4-(trifluoromethyl)phenyl]sulfonyl}octahydrocyclopenta[c]pyrrol-4-yl)-L-norvalinamide], 5330 nM.

As for `CN[C@@H](CC(C)C)C(=O)N[C@H]1CC[C@H]2CN(S(=O)(=O)c3ccc(C(F)(F)F)cc3)C[C@H]21` [Example 457, N^2-methyl-N^1-((3aS,4S,6aR)-2-{[4-(trifluoromethyl)phenyl]sulfonyl}octahydrocyclopenta[c]pyrrol-4-yl)-L-leucinamide], the IC50 worked out at 3070 nM. Then `CCC[C@H](NC)C(=O)N[C@H]1CC[C@@H]2CN(CCC(c3ccc(F)cc3)c3ccc(F)cc3)C[C@@H]21` [Example 458, N^1-{(3aR,4S,6aS)-2-[3,3-bis(4-fluorophenyl)propyl]octahydrocyclopenta[c]pyrrol-4-yl}-N^2-methyl-L-norvalinamide], with 3080 nM; and `CN[C@@H](CC(C)C)C(=O)N1C[C@H]2CC[C@H](NC(=O)C(c3ccc(F)cc3)c3ccc(F)cc3)[C@H]2C1` [Example 459, 2,2-bis(4-fluorophenyl)-N-[(3aR,4S,6aS)-2-(N-methyl-L-leucyl)octahydrocyclopenta[c]pyrrol-4-yl]acetamide], with 1620 nM. Then `CCC[C@H](NC)C(=O)N1C[C@H]2CC[C@H](NC(=O)C(c3ccc(F)cc3)c3ccc(F)cc3)[C@H]2C1` [Example 460, 2,2-bis(4-fluorophenyl)-N-[(3aR,4S,6aS)-2-(N-methyl-L-norvalyl)octahydrocyclopenta[c]pyrrol-4-yl]acetamide], with 2690 nM; and `CN[C@@H](CC(C)(C)C)C(=O)N1C[C@H]2CC[C@H](NC(=O)C(c3ccc(F)cc3)c3ccc(F)cc3)[C@H]2C1` [Example 461, N-[(3aR,4S,6aS)-2-(N,4-dimethyl-L-leucyl)octahydrocyclopenta[e]pyrrol-4-yl]-2,2-bis(4-fluorophenyl)acetamide], with 1880 nM. As for `FC(F)(F)c1cccc(CN2C[C@H]3CC[C@H](NC(c4ccccc4)c4ccccc4)[C@H]3C2)c1` [Example 466, (3aR,4S,6aS)—N-benzhydryl-2-[3-(trifluoromethyl)benzyl]octahydrocyclopenta[c]pyrrol-4-amine], the concentration for half-maximal inhibition (IC50) was 2330 nM.

In the case of `CN[C@@H](CC(C)C)C(=O)N[C@@H]1CC[C@H]2CN(C(c3ccccc3)c3ccccc3)C[C@H]21` [Example 469, N^1-[(3aS,4R,6aR)-2-benzhydryloctahydrocyclopenta[c]pyrrol-4-yl]-N^2-methyl-L-leucinamide], the half-maximal inhibitory concentration (IC50) amounted to 2240 nM. As for `CCCN[C@@H](CC(C)(C)C)C(=O)N[C@H]1CC[C@@H]2CN(S(=O)(=O)c3ccc(C(F)(F)F)cc3)C[C@@H]21` [Example 470, 4-methyl-N^2-propyl-N^1-((3aR,4S,6aS)-2-{[4-(trifluoromethyl)phenyl]sulfonyl}octahydrocyclopenta[c]pyrrol-4-yl)-L-leucinamide], the half-inhibitory concentration (IC50) came to 1030 nM. Under `CC(C)(C)C[C@H](NCC1CC1)C(=O)N[C@H]1CC[C@@H]2CN(S(=O)(=O)c3ccc(C(F)(F)F)cc3)C[C@@H]21` [Example 471, N^2-(cyclopropylmethyl)-4-methyl-N^1-((3aR,4S,6aS)-2-{[4-(trifluoromethyl)phenyl]sulfonyl}octahydrocyclopenta[c]pyrrol-4-yl)-L-leucinamide] stands 650 nM; under `CC(C)(C)C[C@H](NCC1CCC1)C(=O)N[C@H]1CC[C@@H]2CN(S(=O)(=O)c3ccc(C(F)(F)F)cc3)C[C@@H]21` [Example 472, N^2-(cyclobutylmethyl)-4-methyl-N^1-((3aR,4S,6aS)-2-{[4-(trifluoromethyl)phenyl]sulfonyl}octahydrocyclopenta[c]pyrrol-4-yl)-L-leucinamide], 1270 nM. Then `CC(C)CN[C@@H](CC(C)(C)C)C(=O)N[C@H]1CC[C@@H]2CN(S(=O)(=O)c3ccc(C(F)(F)F)cc3)C[C@@H]21` [Example 473, N^2-isobutyl-4-methyl-N^1-((3aR,4S,6aS)-2-{[4-(trifluoromethyl)phenyl]sulfonyl}octahydrocyclopenta[c]pyrrol-4-yl)-L-leucinamide], with 2660 nM; and `CC(C)(C)C[C@H](NCC1CCCC1)C(=O)N[C@H]1CC[C@@H]2CN(S(=O)(=O)c3ccc(C(F)(F)F)cc3)C[C@@H]21` [Example 474, N^2-(cyclopentylmethyl)-4-methyl-N^1-((3aR,4S,6aS)-2-{[4-(trifluoromethyl)phenyl]sulfonyl}octahydrocyclopenta[c]pyrrol-4-yl)-L-leucinamide], with 1740 nM; and `CC(C)(C)C[C@H](NCC1CCCCC1)C(=O)N[C@H]1CC[C@@H]2CN(S(=O)(=O)c3ccc(C(F)(F)F)cc3)C[C@@H]21` [Example 475, N^2-(cyclohexylmethyl)-4-methyl-N^1-((3aR,4S,6aS)-2-{[4-(trifluoromethyl)phenyl]sulfonyl}octahydrocyclopenta[c]pyrrol-4-yl)-L-leucinamide], with 1840 nM. Then `CCCCN[C@@H](CC(C)(C)C)C(=O)N[C@H]1CC[C@@H]2CN(S(=O)(=O)c3ccc(C(F)(F)F)cc3)C[C@@H]21` [Example 476, N^2-butyl-4-methyl-N^1-((3aR,4S,6aS)-2-{[4-(trifluoromethyl)phenyl]sulfonyl}octahydrocyclopenta[c]pyrrol-4-yl)-L-leucinamide], with 1310 nM. With `CCN[C@@H](CC(C)(C)C)C(=O)N[C@H]1CC[C@@H]2CN(S(=O)(=O)c3ccc(C(F)(F)F)cc3)C[C@@H]21` [Example 477, N^2-ethyl-4-methyl-N^1-((3aR,4S,6aS)-2-{[4-(trifluoromethyl)phenyl]sulfonyl}octahydrocyclopenta[c]pyrrol-4-yl)-L-leucinamide], the half-maximal inhibitory concentration (IC50) came out at 1880 nM.

For the compound `CCC[C@H](NC(C)C)C(=O)N[C@H]1CC[C@@H]2CN(S(=O)(=O)c3ccc(C(F)(F)F)cc3)C[C@@H]21` [Example 481, N^2-isopropyl-N^1-((3aR,4S,6aS)-2-{[4-(trifluoromethyl)phenyl]sulfonyl}octahydrocyclopenta[c]pyrrol-4-yl)-L-norvalinamide], the IC50 worked out at 2280 nM. Then `CCC[C@H](NC(C)C)C(=O)N[C@@H]1CC[C@H]2CN(S(=O)(=O)c3ccc(C(F)(F)F)cc3)C[C@H]21` [Example 482, N^2-isopropyl-N^1-((3aS,4R,6aR)-2-{[4-(trifluoromethyl)phenyl]sulfonyl}octahydrocyclopenta[c]pyrrol-4-yl)-L-norvalinamide], with 1970 nM. Then `CCC[C@H](NC(C)C)C(=O)N[C@H]1CC[C@@H]2CN(S(=O)(=O)c3cccc(C(F)(F)F)c3)C[C@@H]21` [Example 483, N^2-isopropyl-N^1-((3aR,4S,6aS)-2-{[3-(trifluoromethyl)phenyl]sulfonyl}octahydrocyclopenta[c]pyrrol-4-yl)-L-norvalinamide], with 490 nM.

On to `CCC[C@H](NC(C)C)C(=O)N[C@@H]1CC[C@H]2CN(S(=O)(=O)c3cccc(C(F)(F)F)c3)C[C@H]21` [Example 484, N^2-isopropyl-N^1-((3aS,4R,6aR)-2-{[3-(trifluoromethyl)phenyl]sulfonyl}octahydrocyclopenta[c]pyrrol-4-yl)-L-norvalinamide], for which the 50% inhibitory concentration (IC50) amounted to 970 nM. Then `CC(C)N[C@@H](CC(C)(C)C)C(=O)N[C@H]1CC[C@@H]2CN(S(=O)(=O)c3cc(C(F)(F)F)ccc3Cl)C[C@@H]21` [Example 486, N^1-((3aR,4S,6aS)-2-{[2-chloro-5-(trifluoromethyl)phenyl]sulfonyl}octahydrocyclopenta[c]pyrrol-4-yl)-N^2-isopropyl-4-methyl-L-leucinamide], with 1210 nM.
